Key:
HFF = assay: Antiproliferative activity against HFF after 3 days by coulter counter assay; type: cell-based; conditions: Homo sapiens, 72 h
[1] = Cytotoxicity against HFF after 7 days by neutral red uptake assay; type: cell-based; conditions: human, HFF cells
Vaccinia virus [2] = assay: Antiviral activity against Vaccinia virus Copenhagen infected in HFF assessed as reduction of plaque formation after 3 days; type: functional, organism-based; conditions: Orthopoxvirus vaccinia, 72 h
Cowpox virus [3] = assay: Antiviral activity against Cowpox virus Brighton infected in HFF assessed as reduction of plaque formation after 3 days; type: functional, organism-based; conditions: 72 h
Vaccinia virus [4] = assay: Ratio of compound EC50 to cidofovir EC50 for Vaccinia virus Copenhagen; type: functional, Orthopoxvirus vaccinia
Vaccinia virus [5] = assay: Ratio of compound EC50 to cidofovir EC50 for Vaccinia virus WR; type: functional, Orthopoxvirus vaccinia
Cowpox virus [6] = assay: Ratio of compound EC50 to cidofovir EC50 for Cowpox virus Brighton; type: functional
Vaccinia virus [7] = assay: Antiviral activity against Vaccinia virus WR infected in BALB/c mouse assessed as uncured animal at 15 mg/kg, ip bid for 5 days administered 24 hrs after infection relative to control; type: functional, Orthopoxvirus vaccinia; conditions: route intraperitoneal
Vaccinia virus [8] = assay: Antiviral activity against Vaccinia virus WR infected in BALB/c mouse assessed as uncured animal at 50 mg/kg, ip bid for 5 days administered 24 hrs after infection relative to control; type: functional, Orthopoxvirus vaccinia; conditions: route intraperitoneal
Vaccinia virus [9] = assay: Antiviral activity against Vaccinia virus WR infected in HFF assessed as inhibition of DNA synthesis after 24 hrs by PCR analysis; type: functional, organism-based; conditions: Orthopoxvirus vaccinia
Vaccinia virus [10] = assay: Antiviral activity against Vaccinia virus WR infected in HFF assessed as reduction of plaque formation after 3 days; type: functional, organism-based; conditions: Orthopoxvirus vaccinia, 72 h
Cowpox virus [11] = assay: Antiviral activity against Cowpox virus Brighton infected in BALB/c mouse assessed as uncured animal at 1.5 mg/kg, po bid for 5 days administered 3 days after infection relative to control; type: functional
Cowpox virus [12] = assay: Antiviral activity against Cowpox virus Brighton infected in BALB/c mouse assessed as day of death at 15 mg/kg, po bid for 5 days administered 3 days after infection; type: functional
Cowpox virus [13] = assay: Antiviral activity against Cowpox virus Brighton infected in BALB/c mouse assessed as day of death at 1.5 mg/kg, po bid for 5 days administered 3 days after infection; type: functional
Cowpox virus [14] = assay: Antiviral activity against Cowpox virus Brighton infected in BALB/c mouse assessed as uncured animal at 5 mg/kg, po bid for 5 days administered 4 days after infection relative to control; type: functional
Cowpox virus [15] = assay: Antiviral activity against Cowpox virus Brighton infected in BALB/c mouse assessed as day of death at 5 mg/kg, po bid for 5 days administered 4 days after infection; type: functional
Cowpox virus [16] = assay: Antiviral activity against Cowpox virus Brighton infected in BALB/c mouse assessed as uncured animal at 5 mg/kg, po bid for 5 days administered 5 days after infection relative to control; type: functional
Cowpox virus [17] = assay: Antiviral activity against Cowpox virus Brighton infected in BALB/c mouse assessed as day of death at 5 mg/kg, po bid for 5 days administered 5 days after infection; type: functional
Cowpox virus [18] = assay: Antiviral activity against Cowpox virus Brighton infected in BALB/c mouse assessed as uncured animal at 5 mg/kg, po bid for 5 days administered 8 days after infection relative to control; type: functional
Cowpox virus [19] = assay: Antiviral activity against Cowpox virus Brighton infected in BALB/c mouse assessed as day of death at 5 mg/kg, po bid for 5 days administered 8 days after infection; type: functional
Vaccinia virus [20] = assay: Antiviral activity against Vaccinia virus WR infected in BALB/c mouse assessed as uncured animal at 5 mg/kg, ip bid for 5 days administered 24 hrs after infection relative to control; type: functional, Orthopoxvirus vaccinia; conditions: route intraperitoneal
Vaccinia virus [21] = assay: Antiviral activity against Vaccinia virus WR infected in BALB/c mouse assessed as day of death at 15 mg/kg, ip bid for 5 days administered 24 hrs after infection; type: functional, Orthopoxvirus vaccinia; conditions: route intraperitoneal
Cowpox virus [22] = assay: Antiviral activity against Cowpox virus Brighton infected in BALB/c mouse assessed as uncured animal at 15 mg/kg, ip qd for 5 days administered 24 hrs after infection relative to control; type: functional; conditions: route intraperitoneal
Cowpox virus [23] = assay: Antiviral activity against Cowpox virus Brighton infected in BALB/c mouse assessed as uncured animal at 5 mg/kg, ip bid for 5 days administered 24 hrs after infection relative to control; type: functional; conditions: route intraperitoneal
Cowpox virus [24] = assay: Antiviral activity against Cowpox virus Brighton infected in BALB/c mouse assessed as uncured animal at 1.5 mg/kg, ip bid for 5 days administered 24 hrs after infection relative to control; type: functional; conditions: route intraperitoneal
Cowpox virus [25] = assay: Antiviral activity against Cowpox virus Brighton infected in BALB/c mouse assessed as uncured animal at 15 mg/kg, po bid for 5 days administered 24 hrs after infection relative to control; type: functional
Cowpox virus [26] = assay: Antiviral activity against Cowpox virus Brighton infected in BALB/c mouse assessed as uncured animal at 5 mg/kg, po bid for 5 days administered 24 hrs after infection relative to control; type: functional
Cowpox virus [27] = assay: Antiviral activity against Cowpox virus Brighton infected in BALB/c mouse assessed as uncured animal at 1.5 mg/kg, po bid for 5 days administered 24 hrs after infection relative to control; type: functional
Cowpox virus [28] = assay: Antiviral activity against Cowpox virus Brighton infected in BALB/c mouse assessed as uncured animal at 15 mg/kg, po bid for 5 days administered 2 days after infection relative to control; type: functional
Cowpox virus [29] = assay: Antiviral activity against Cowpox virus Brighton infected in BALB/c mouse assessed as uncured animal at 5 mg/kg, po bid for 5 days administered 2 days after infection relative to control; type: functional
Cowpox virus [30] = assay: Antiviral activity against Cowpox virus Brighton infected in BALB/c mouse assessed as uncured animal at 1.5 mg/kg, po bid for 5 days administered 2 days after infection relative to control; type: functional
Cowpox virus [31] = assay: Antiviral activity against Cowpox virus Brighton infected in BALB/c mouse assessed as day of death at 15 mg/kg, po bid for 5 days administered 2 days after infection; type: functional
Cowpox virus [32] = assay: Antiviral activity against Cowpox virus Brighton infected in BALB/c mouse assessed as day of death at 5 mg/kg, po bid for 5 days administered 2 days after infection; type: functional
Cowpox virus [33] = assay: Antiviral activity against Cowpox virus Brighton infected in BALB/c mouse assessed as uncured animal at 15 mg/kg, po bid for 5 days administered 3 days after infection relative to control; type: functional
Cowpox virus [34] = assay: Antiviral activity against Cowpox virus Brighton infected in BALB/c mouse assessed as uncured animal at 5 mg/kg, po bid for 5 days administered 3 days after infection relative to control; type: functional
Vaccinia virus [35] = assay: Antiviral activity against Vaccinia virus WR infected in BALB/c mouse assessed as uncured animal at 15 mg/kg, ip qd for 5 days administered 24 hrs after infection relative to control; type: functional, Orthopoxvirus vaccinia; conditions: route intraperitoneal
Cowpox virus [36] = assay: Antiviral activity against Cowpox virus Brighton infected in BALB/c mouse assessed as uncured animal at 15 mg/kg, ip qd for 5 days administered 4 days after infection relative to control; type: functional; conditions: route intraperitoneal
Cowpox virus [37] = assay: Antiviral activity against Cowpox virus Brighton infected in BALB/c mouse assessed as uncured animal at 15 mg/kg, ip qd for 5 days administered 5 days after infection relative to control; type: functional; conditions: route intraperitoneal
Cowpox virus [38] = assay: Antiviral activity against Cowpox virus Brighton infected in BALB/c mouse assessed as day of death at 15 mg/kg, ip qd for 5 days administered 5 days after infection; type: functional; conditions: route intraperitoneal
Cowpox virus [39] = assay: Antiviral activity against Cowpox virus Brighton infected in BALB/c mouse assessed as uncured animal at 15 mg/kg, ip qd for 5 days administered 8 days after infection relative to control; type: functional; conditions: route intraperitoneal
Cowpox virus [40] = assay: Antiviral activity against Cowpox virus Brighton infected in BALB/c mouse assessed as day of death at 15 mg/kg, ip qd for 5 days administered 8 days after infection; type: functional; conditions: route intraperitoneal
Cowpox virus [41] = assay: Antiviral activity against Cowpox virus Brighton infected in BALB/c mouse assessed as uncured animal at 15 mg/kg, ip qd for 5 days administered 2 days after infection relative to control; type: functional; conditions: route intraperitoneal
Cowpox virus [42] = assay: Antiviral activity against Cowpox virus Brighton infected in BALB/c mouse assessed as uncured animal at 15 mg/kg, ip qd for 5 days administered 3 days after infection relative to control; type: functional; conditions: route intraperitoneal

O=c1[nH]c(=O)n([C@H]2C[C@H](O)[C@@H](CO)S2)cc1Br
IC50 (HFF): 200 nM | CC50 at 168 h [1]: > 100000 nM | EC50 (Vaccinia virus [2]): 90 nM | EC50 (Cowpox virus [3]): 50 nM | Ratio EC50 (Vaccinia virus [4]): 20 | Ratio EC50 (Vaccinia virus [5]): 20 | Ratio EC50 (Cowpox virus [6]): 20

O=c1[nH]c(=O)n([C@H]2C[C@H](O)[C@@H](CO)S2)cc1C(F)(F)F
IC50 (HFF): 140 nM | CC50 at 168 h [1]: > 100000 nM | EC50 (Vaccinia virus [2]): 100 nM | EC50 (Cowpox virus [3]): 80 nM | Ratio EC50 (Vaccinia virus [4]): 20 | Ratio EC50 (Vaccinia virus [5]): 20 | Ratio EC50 (Cowpox virus [6]): 20

O=c1[nH]c(=O)n([C@H]2C[C@H](O)[C@@H](CO)S2)cc1I
Activity (Vaccinia virus [7]): 7% | Activity (Vaccinia virus [8]): 0% | EC50 (Vaccinia virus [9]): 600 nM | IC50 (HFF): 3000 nM | CC50 at 168 h [1]: > 100000 nM | EC50 (Vaccinia virus [2]): 500 nM | EC50 (Vaccinia virus [10]): 40 nM | Activity (Cowpox virus [11]): 13% | Activity (Cowpox virus [12]): 14% | Activity (Cowpox virus [13]): 14 days | Activity (Cowpox virus [14]): 27% | Activity (Cowpox virus [15]): 13.3 days | Activity (Cowpox virus [16]): 87% | Activity (Cowpox virus [17]): 9.8 days | Activity (Cowpox virus [18]): 100% | Activity (Cowpox virus [19]): 9.7 days | Activity (Vaccinia virus [20]): 0% | Activity (Vaccinia virus [21]): 11% | Activity (Cowpox virus [22]): 0% | Activity (Cowpox virus [23]): 0% | Activity (Cowpox virus [24]): 0% | Activity (Cowpox virus [25]): 0% | Activity (Cowpox virus [26]): 0% | Activity (Cowpox virus [27]): 0% | Activity (Cowpox virus [28]): 7% | Activity (Cowpox virus [29]): 13% | Activity (Cowpox virus [30]): 0% | Activity (Cowpox virus [31]): 18% | Activity (Cowpox virus [32]): 16 days | Activity (Cowpox virus [33]): 7% | Activity (Cowpox virus [34]): 0%

CC(=O)OC[C@H]1S[C@@H](n2cc(I)c(=O)[nH]c2=O)C[C@@H]1OC(C)=O
IC50 (HFF): 26000 nM | CC50 at 168 h [1]: > 100000 nM | EC50 (Vaccinia virus [2]): 900 nM | EC50 (Cowpox virus [3]): 330 nM | Ratio EC50 (Vaccinia virus [4]): 20 | Ratio EC50 (Vaccinia virus [5]): 20 | Ratio EC50 (Cowpox virus [6]): 20

Nc1nc(=O)n([C@@H]2S[C@H](CO)[C@@H](O)[C@@H]2O)cc1F
IC50 (HFF): < 30 nM | CC50 at 168 h [1]: > 100000 nM | EC50 (Vaccinia virus [2]): 100 nM | EC50 (Cowpox virus [3]): 400 nM | Ratio EC50 (Vaccinia virus [4]): 20 | Ratio EC50 (Vaccinia virus [5]): 20 | Ratio EC50 (Cowpox virus [6]): 20

Cc1cn([C@H]2C[C@H](O)[C@@H](CO)S2)c(=O)[nH]c1=O [4'-THIOTHYMIDINE]
IC50 (HFF): < 30 nM | CC50 at 168 h [1]: > 100000 nM | EC50 (Vaccinia virus [2]): 30 nM | EC50 (Cowpox virus [3]): 20 nM | Ratio EC50 (Vaccinia virus [4]): 20 | Ratio EC50 (Vaccinia virus [5]): 20 | Ratio EC50 (Cowpox virus [6]): 20

Nc1ccn(C[C@@H](CO)OCP(=O)(O)O)c(=O)n1.O.O [CIDOFOVIR]
Activity (Vaccinia virus [35]): 0% | IC50 (HFF): 1900 nM | CC50 at 168 h [1]: > 317000 nM | EC50 (Vaccinia virus [2]): 19000 nM | EC50 (Vaccinia virus [10]): 10000 nM | Activity (Cowpox virus [36]): 0% | Activity (Cowpox virus [37]): 80% | Activity (Cowpox virus [38]): 10.5 days | Activity (Cowpox virus [39]): 27% | Activity (Cowpox virus [40]): 12 days | Activity (Cowpox virus [22]): 0% | Activity (Cowpox virus [41]): 0% | Activity (Cowpox virus [42]): 0%

O=c1[nH]c(=O)n([C@H]2C[C@H](O)[C@@H](CO)O2)cc1I [IDOXURIDINE]
EC50 (Vaccinia virus [9]): 17000 nM | EC50 (Vaccinia virus [10]): 2800 nM

O=C(NN1C(=O)[C@@H]2[C@@H]3C=C[C@@H]([C@H]4C[C@@H]34)[C@@H]2C1=O)c1ccc(C(F)(F)F)cc1 [TECOVIRIMAT]
EC50 (Vaccinia virus [9]): > 100000 nM | EC50 (Vaccinia virus [10]): 70 nM

Nc1ccn([C@@H]2S[C@H](CO)[C@@H](O)[C@@H]2O)c(=O)n1 [THIARABINE]
IC50 (HFF): 1000 nM | CC50 at 168 h [1]: > 88000 nM | EC50 (Vaccinia virus [2]): 300 nM | EC50 (Cowpox virus [3]): 1600 nM | Ratio EC50 (Vaccinia virus [4]): 20 | Ratio EC50 (Vaccinia virus [5]): 20 | Ratio EC50 (Cowpox virus [6]): 20

From ChEMBL document CHEMBL1629620 (Antimicrob Agents Chemother, 2009)
